The subject of this data set is rodent carcinogenicity bioassays, tumor incidence. In words: CCRIS carcinogenicity studies. The following applies: Dose: 0, Dose: 0. A digest of the protocol: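 Archive of carcinogenicity, mutagenicity, tumor promotion and tumor inhibition results drawn from journals, NCI reports and other sources, expert-reviewed; covers 1985-2011 and is no longer updated.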
[1] abbreviates: Species: MOUSE, Strain/Sex: CD-1/FEMALE, Route: INTRAPERITONEAL, 5, 10 AND 20 µL OF A 0.05 MOLAR SOLUTION ON DAYS 1, 8 AND 15 OF LIFE RESPECTIVELY (TOTAL DOSE: 1.75 UMOL) (STUDY DURA, 5, 10 AND 20 µL OF A 0.05 MOLAR SOLUTION ON DAYS 1, 8 AND 15 OF LIFE RESPECTIVELY (TOTAL DOSE: 1.75 UMOL) (STUDY DURA.
Setting [2] is: Species: MOUSE, Strain/Sex: CD-1/MALE, Route: INTRAPERITONEAL, 5, 10 AND 20 µL OF A 0.05 MOLAR SOLUTION ON DAYS 1, 8 AND 15 OF LIFE RESPECTIVELY (TOTAL DOSE: 1.75 UMOL) (STUDY DURA, 5, 10 AND 20 µL OF A 0.05 MOLAR SOLUTION ON DAYS 1, 8 AND 15 OF LIFE RESPECTIVELY (TOTAL DOSE: 1.75 UMOL) (STUDY DURA.

Activity calls are given as the source filed them. No rule for the calls is given here.

In the case of `OC[C@@H](O)[C@@H](O)[C@H](O)[C@H](O)CO[C@H]1O[C@H](CO)[C@@H](O)[C@H](O)[C@H]1O`, the carcinogen call (Species: MOUSE, Strain/Sex: SWISS/FEMALE, Route: ORAL, 2.5, 5, 10% IN DIET FOR LIFE (PARENTS FED DIETS BEFORE AND AFTER PREGNANCY AND DURING LACTATION) (STUDY DURATION: 104, 2.5, 5, 10% IN DIET FOR LIFE (PARENTS FED DIETS BEFORE AND AFTER PREGNANCY AND DURING LACTATION) (STUDY DURATION: 104) was “inactive; negative”; the carcinogen call (Species: MOUSE, Strain/Sex: SWISS/MALE, Route: ORAL, 2.5, 5, 10% IN DIET FOR LIFE (PARENTS FED DIETS BEFORE AND AFTER PREGNANCY AND DURING LACTATION) (STUDY DURATION: 94, 2.5, 5, 10% IN DIET FOR LIFE (PARENTS FED DIETS BEFORE AND AFTER PREGNANCY AND DURING LACTATION) (STUDY DURATION: 94) was “inactive; negative”; the carcinogen call (Species: RAT, Strain/Sex: WISTAR/FEMALE, Route: ORAL, 2.5, 5, 10% IN DIET FOR LIFE (PARENTS FED DIETS BEFORE AND AFTER PREGNANCY AND DURING LACTATION) (STUDY DURATION: 130, 2.5, 5, 10% IN DIET FOR LIFE (PARENTS FED DIETS BEFORE AND AFTER PREGNANCY AND DURING LACTATION) (STUDY DURATION: 130) was “inactive; negative”; the carcinogen call (Species: RAT, Strain/Sex: WISTAR/MALE, Route: ORAL, 2.5, 5, 10% IN DIET FOR LIFE (PARENTS FED DIETS BEFORE AND AFTER PREGNANCY AND DURING LACTATION) (STUDY DURATION: 128, 2.5, 5, 10% IN DIET FOR LIFE (PARENTS FED DIETS BEFORE AND AFTER PREGNANCY AND DURING LACTATION) (STUDY DURATION: 128) was “inactive; negative”.
On to `C[C@]12C=CC(=O)C=C1CC[C@@H]1[C@@H]2[C@@H](O)C[C@@]2(C)[C@H]1CC[C@]2(O)C(=O)COC(=O)CCCc1ccc(N(CCCl)CCCl)cc1`, for which, under “Species: RAT, Strain/Sex: SPRAGUE-DAWLEY/FEMALE, Route: GAVAGE, 12 MG/KG ADMINISTERED 1, 2, 4.5 OR 9 TIMES PER MO FOR 18 MO TO GIVE MEDIAN TOTAL DOSES OF 216, 432, 938, 1872 MG/KG (, 12 MG/KG ADMINISTERED 1, 2, 4.5 OR 9 TIMES PER MO FOR 18 MO TO GIVE MEDIAN TOTAL DOSES OF 216, 432, 938, 1872 MG/KG (, Tumor Site: Type of Lesion: EAR CANAL: SQUAMOUS-CELL CARCINOMA”, the carcinogen call was “active; positive”.
For `O[C@H]1C=Cc2c(ccc3cccnc23)[C@@H]1O`, the carcinogen call by setting is: under setting [1], “inactive; negative”; under setting [2], “inactive; negative”.
For `O=c1[nH]c2ccccc2c2ccccc12`, the carcinogen call is, setting by setting: under setting [1], “inactive; negative”; under setting [2], “inactive; negative”.
On to `N#CC(Br)Br`, for which the carcinogen call reads like this: (Species: Mouse, Strain/Sex: B6C3F1/Female (50/group), Route: Oral, 50, 100, 200 mg/l in drinking water for 2 yr, 50, 100, 200 mg/l in drinking water for 2 yr, Tumor Site: Type of Lesion: Forestomach: squamous cell papilloma and squamous cell carcinoma combined (1/50, 0/50, 5/50, 14/50)) “active; positive (ntp describes as clear evidence)”; (Species: Mouse, Strain/Sex: B6C3F1/Male (50/group), Route: Oral, 50, 100, 200 mg/l in drinking water for 2 yr, 50, 100, 200 mg/l in drinking water for 2 yr, Tumor Site: Type of Lesion: Forestomach: squamous cell papilloma and squamous cell carcinoma combined (0/50, 1/50, 0/50, 5/50). Liver: hepatoblastom) “active; positive (ntp describes as clear evidence)”; (Species: Rat, Strain/Sex: F344/N / Female (50/group), Route: Oral, 50, 100, 200 mg/l in drinking water for 2 yr, 50, 100, 200 mg/l in drinking water for 2 yr, Tumor Site: Type of Lesion: Oral Cavity (oral mucosa or tongue): squamous cell papilloma (1/50, 0/50, 4/50, 0/50). Skin: squamous cell papilloma, ke) “active; positive (ntp describes as some evidence)”; (Species: Rat, Strain/Sex: F344/N / Male (50/group), Route: Oral, 50, 100, 200 mg/l in drinking water for 2 yr, 50, 100, 200 mg/l in drinking water for 2 yr, Tumor Site: Type of Lesion: Oral Cavity (oral mucosa or tongue): squamous cell papilloma and carcinoma combined (0/50, 0/50, 2/50, 5/50) (Statistica) “active; positive (ntp describes as clear evidence)”.
In the case of `CC(O)CN(N=O)C(=O)NCCCl` (centres undefined), the carcinogen call was “active; positive” (Species: RAT, Strain/Sex: F344/FEMALE, Route: INTRAVESICULAR, 4.6 MG 2/WK FOR 30 WK (STUDY DURATION: LIFETIME), Tumor Site: Type of Lesion: BLADDER: TUMOR); “active; positive” (Species: RAT, Strain/Sex: F344/FEMALE, Route: ORAL, 46 MG/L IN DRINKING WATER 5 D/WK FOR 30 WK (STUDY DURATION: LIFETIME), Tumor Site: Type of Lesion: BLADDER: TUMOR, THYROID: FOLLICULAR TUMOR); “inactive; negative” (Species: RAT, Strain/Sex: F344/MALE, Route: ORAL, 46 MG/L IN DRINKING WATER 5 D/WK FOR 30 WK (STUDY DURATION: LIFETIME)).
Turning to `NCCN`, the carcinogen call (Species: MOUSE, Strain/Sex: C3H/MALE, Route: DERMAL, 25 µL OF A 1% DEIONIZED WATER SOLUTION 3/WK FOR LIFESPAN (STUDY DURATION: LIFESPAN)) is “inactive; negative”; the carcinogen call (Species: RAT, Strain/Sex: F344/FEMALE, Route: ORAL, 20, 100, 350 MG/KG/D IN DIET FOR 104 WK (STUDY DURATION: 104 WK), 20, 100, 350 MG/KG/D IN DIET FOR 104 WK (STUDY DURATION: 104 WK)) is “inactive; negative”; the carcinogen call (Species: RAT, Strain/Sex: F344/MALE, Route: ORAL, 20, 100, 350 MG/KG/D IN DIET FOR 104 WK (STUDY DURATION: 104 WK), 20, 100, 350 MG/KG/D IN DIET FOR 104 WK (STUDY DURATION: 104 WK)) was “inactive; negative”.

(Values after PubChem BioAssay AID1259411 (Chemical Carcinogenesis Research Information System (CCRIS), 2018).)
